Measurements from patent publication US20040132795A1, “Methods to screen and treat individuals with glaucoma or the propensity to develop glaucoma” (priority 2001, published 2004).

Assays:
Type in all cases: in vivo, human
[1] = Treatment with diclofenac in glaucomic patients possessing both the mt-1 and mt-11 mutations, mean diurnal IOP; settings: 0.1% diclofenac
[2] = Treatment with diclofenac in glaucomic patients having the TIGRmt-11 mutation, mean diurnal IOP; settings: 0.1% diclofenac
Text: The same procedures described in Example II were followed with respect to administering Diclofenac to glaucomic patients having the […]-11 mutation.

[3] = Treatment with diclofenac for 6 months in the presence of the TIGR mt-1 mutation, mean diurnal IOP
Text: After treatment for 6 months with varying amounts of diclofenac in the presence of the mt-1 mutation, the following results are observed: […]

[4] = 0.03% diclofenac, mt-1 mutation present
[5] = 0.06% diclofenac, mt-1 mutation present
[6] = 0.1% diclofenac, mt-1 mutation present

With O=C(O)Cc1ccccc1Nc1c(Cl)cccc1Cl [Diclofenac] the “Mean Change in Diurnal IOP at 6 Months” value ([1]; mt-1 and mt-11 mutations absent) was −0.6 mm Hg, the “Mean Change in Diurnal IOP at 6 Months” value ([1]; mt-1 and mt-11 mutations present) was −2.9 mm Hg and the “Mean Change in Diurnal IOP at 6 Months” value ([2]; mt-11 mutation absent) was −1.3 mm Hg. For the same molecule, the “Mean Change in Diurnal IOP at 6 Months” value ([2]; mt-11 mutation present) was −2.0 mm Hg, the “Percentage of Patients Exhibiting a Decrease in Diurnal IOP >= 2 mm Hg After 6 Months of Treatment” value [3, 4] was 36% and the “Percentage of subjects exhibiting a Mean Diurnel IOP < 22 mm Hg After 6 Months of Treatment” value [3, 4] was 55%. For the same molecule, the “Percentage of Patients Exhibiting a Decrease in Diurnal IOP >= 2 mm Hg After 6 Months of Treatment” value [3, 5] was 40%, the “Percentage of subjects exhibiting a Mean Diurnel IOP < 22 mm Hg After 6 Months of Treatment” value [3, 5] was 60% and the “Mean Change in Diurnal IOP at 6 Months” value ([3]; 0.1% diclofenac, mt-1 mutation absent) was −1.5 mm Hg. The “Mean Change in Diurnal IOP at 6 Months” value [3, 6] was −2.1 mm Hg, the “Percentage of Patients Exhibiting a Decrease in Diurnal IOP >= 2 mm Hg After 6 Months of Treatment” value [3, 6] was 64% and the “Percentage of subjects exhibiting a Mean Diurnel IOP < 22 mm Hg After 6 Months of Treatment” value [3, 6] was 64%.
